Earlier results, collected in patent US11771784B2, “Material, device, and method for deactivating pathogen in aerosol, and methods for manufacturing thereof” (priority 2016, dated 2023).

Conditions: in water

Compound | maximum solubility limit
[Cl-].[K+] [potassium chloride] | about 355 g/l
(sodium/potassium) tartrates | about 660 g/l
